Several values for one entry are separate records, joined by “and”; a condition that tells them apart may be missing. Identical values can stand only once. Marks after values point to notes of the source that are not given here.
How the values were obtained:
[1] = Baseline screening BCF (0.0125 DMLW, equilibrium partitioning, no biotransformation); settings: for Log baseline BCF: determined as 0.0125 DMLW
From the text: Recently, the concept of a baseline screening BCF was introduced for surfactants, based on equilibrium partitioning assuming no biotransformation.[19] The baseline screening BCF for the study chemicals exceeded the measured BCF by 1–2.5 orders of magnitude (Table S16), providing further evidence that biotransformation is an important factor influencing the elimination—and thereby the BCF—of the anionic surfactants studied here in rainbow trout. The deviation of PFOA and PFOS from the regression between BCF and DMLW (Figure 1, upper panel) is attributable to them not being biotransformed.
Table S16: Comparison of the BCF (determined with the measured concentrations in water) and the baseline screening BCF (determined as 0.0125 DMLWa)
CHEMICAL Log BCF Log baseline BCF Log difference […]
a Droge, S. T. J.; Scherpenisse, P.; Arnot, J. A.; Armitage, J. M.; McLachlan, M. S.; Nichols, J.; von der Ohe, P.; Bonnell, M.; Hodges, G. Screening the baseline fish bioconcentration potential of various types of surfactants using phospholipid binding data. Environ. Sci.: Processes Impacts

rainbow trout = assay: In vivo bioconcentration experiment with a mixture of anionic surfactants, flow-through aquaria, 10 °C, pH 7.8; settings: for Log BCF: determined with measured concentrations in water; for Concentration in fish: individual fish;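 for Uptake rate constant kU: L kg-1 h-1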
Method: The bioconcentration of a mixture of 10 anionic surfactants was measured in rainbow trout in water at pH 7.8. […] The experiment was conducted in flow-through aquaria with juvenile rainbow trout at 10 °C. Ethical approval for the experiments was obtained from Stockholms […] (decision 9967-2017). The fish, fish housing, fish handling, and procedure for introducing the mixture of […] chemicals were very similar to our previous study with cationic surfactants;[5] details are provided in Text S1. The experiment consisted of a 4-day exposure phase and a 7-day depuration phase. […] Water samples were collected and fish were sacrificed according to the schedule in Table S4. The water samples were collected just prior to the daily removal of feces from the aquarium. Triplicate samples were taken at each time point. […] The water/methanol mixture was analyzed using liquid chromatography-mass spectrometry (LC-MS)/MS as described below for fish. At each fish sampling, five fish were sacrificed. Following stunning and severance of the spinal cord, the whole fish were placed in a polyethylene bag, weighed, and immediately frozen at -20 °C. The weight of the individual fish at sacrifice was 24.0 ± 5.6 g. Three of the five fish from each time point were prioritized for analysis based on proximity to the median fish weight. Each fish was […] homogenized with an Ultra-turrax dispersing device. […] This mixture was homogenized in a bullet blender for 5 min and then placed in an ultrasound bath at 45 °C for 15 min. Following centrifugation for 15 min@3200 RCF, the supernatant was decanted and the extraction was repeated. The extracts were combined. For instrumental analysis, 5 μL of the fish extract or 60 μL of the water/methanol mixture (water samples) was separated on an Acquity UPLC BEH C18 column fitted with a BEH C18 pre-column and analyzed on a TSQ Quantiva triple quadrupole mass spectrometer. The mobile phase was methanol (10 mM ammonium acetate) and Milli-Q-filtered water (10 mM ammonium acetate) (see Table S5 for the liquid chromatography program). To avoid detergent blank peaks originating from cleaning mobile phase bottles, the methanol was prepared directly in the solvent bottle as delivered and Milli-Q was tapped into an empty methanol bottle. Furthermore, a guard column was fitted between the mobile phase and the autosampler to prevent background contamination from disturbing the analysis. All analytes were quantified against the BEHP internal standard, as it gave better reproducibility. […] The central goal of the analysis was to estimate kU and kT as well as the BCF (=kU/kT) from measurements of surfactant concentration in fish and water samples collected at different time points of the experiment. For the fish, only those time points were included for which CF(measured) was above the limit of quantitation (LOQ) in all three fish (data below the LOQ will have a positive bias; including them would result in a negative bias in kT). In this analysis, there exist two sources of uncertainty: first, uncertainty in the actual concentration in water CW at the time of sample collection and second, variability in the concentration in fish around the (expected) surfactant concentrations in fish assumed to follow model (1). We therefore set up a model in which we considered uncertainty in both water and fish measurements simultaneously by assuming a parametric model for the surfactant concentration in the water over time (either linear or quadratic) and accounted for the uncertainty in the corresponding parameters of the water model during the estimation of kU and kT. This was done in a joint Bayesian model that we estimated via Hamiltonian Monte Carlo. […]

[2] = cited from earlier work
[3] = determined using nominal concentrations in water
[4] = from measured concentrations in water, Bayesian estimate, 95% credible interval in brackets
[5] = measured concentrations in water, simpler estimation method (Text S3), 95% confidence intervals in brackets

Compound: CCCCCCCCCCc1ccc(S(=O)(=O)O)cc1 [C10-1-LAS, 1-n-(p-sulfophenyl)decane]
- Log difference (baseline BCF vs BCF) [1]: 1.99 L kg-1 ww
- Log baseline BCF [1]: 3.20 L kg-1 ww
- BCF (rainbow trout; [3]): 15.0 L kg-1 ww
- Elimination rate constant kT (rainbow trout; [3]): 0.049 h⁻¹
- Uptake rate constant kU (rainbow trout; [3]): 0.74 L/kg/h
- Log BCF (rainbow trout): 1.21 L kg-1 ww
- Concentration in fish (rainbow trout; elimination phase, 97 h): 78 ng g-1 ww (2×) and 103 ng g-1 ww
- Concentration in fish (rainbow trout; elimination phase, 98 h): 73 ng g-1 ww and 72 ng g-1 ww and 55 ng g-1 ww
- Concentration in fish (rainbow trout; elimination phase, 100 h): 74 ng g-1 ww and 57 ng g-1 ww and 60 ng g-1 ww
- Concentration in fish (rainbow trout; elimination phase, 103 h): 47 ng g-1 ww and 58 ng g-1 ww and 51 ng g-1 ww
- Concentration in fish (rainbow trout; elimination phase, 120 h): 24 ng g-1 ww and 27 ng g-1 ww and 17.2 ng g-1 ww
- Concentration in fish (rainbow trout; elimination phase, 128 h): 14.0 ng g-1 ww and 17.0 ng g-1 ww and 18.2 ng g-1 ww
- Concentration in fish (rainbow trout; elimination phase, 144 h): 7.6 ng g-1 ww and 6.8 ng g-1 ww and 10.2 ng g-1 ww
- Concentration in fish (rainbow trout; elimination phase, 168 h): 4.7 ng g-1 ww and 3.5 ng g-1 ww (2×)
- Concentration in fish (rainbow trout; elimination phase, 192 h): 1.08 ng g-1 ww and 1.14 ng g-1 ww and 1.40 ng g-1 ww
- Concentration in fish (rainbow trout; elimination phase, 264 h): 1.0 ng g-1 ww and 0.7 ng g-1 ww and 0.31 ng g-1 ww
- Concentration in fish (rainbow trout; exposure phase, 1 h): 8.9 ng g-1 ww and 6.9 ng g-1 ww and 16.6 ng g-1 ww
- Concentration in fish (rainbow trout; exposure phase, 2 h): 11.3 ng g-1 ww and 10.6 ng g-1 ww and 7.2 ng g-1 ww
- Concentration in fish (rainbow trout; exposure phase, 3 h): 16.5 ng g-1 ww and 19.7 ng g-1 ww and 16.6 ng g-1 ww
- Concentration in fish (rainbow trout; exposure phase, 4 h): 26 ng g-1 ww and 32 ng g-1 ww and 75 ng g-1 ww
- Concentration in fish (rainbow trout; exposure phase, 6 h): 38 ng g-1 ww (2×) and 27 ng g-1 ww
- Concentration in fish (rainbow trout; exposure phase, 24 h): 86 ng g-1 ww and 91 ng g-1 ww and 64 ng g-1 ww
- Concentration in fish (rainbow trout; exposure phase, 48 h): 94 ng g-1 ww and 98 ng g-1 ww and 84 ng g-1 ww
- Concentration in fish (rainbow trout; exposure phase, 72 h): 112 ng g-1 ww and 87 ng g-1 ww and 70 ng g-1 ww
- Concentration in fish (rainbow trout; exposure phase, 96 h): 113 ng g-1 ww and 104 ng g-1 ww and 110 ng g-1 ww
- Elimination rate constant kT (rainbow trout; [4]): 0.047 (0.044–0.050) h^–1
- Uptake rate constant kU (rainbow trout; [4]): 0.77 (0.67–0.87) L kg^–1 ww h^–1
- diffusion coefficient (D) in the epithelial membrane of the gills (rainbow trout; in vivo): 2.4 × 10^–8 m h^–1
- BCF (kinetic) (rainbow trout; kinetic BCF from measured concentrations in water, 95% credible interval in brackets): 16.3 (14.6–18.2) L kg^–1 ww
- BCF (rainbow trout; [5]): 14.7 (8) L kg-1 ww
- Elimination rate constant kT (rainbow trout; [5]): 0.046 (3) h-1
- Uptake rate constant kU (rainbow trout; [5]): 0.67 (8) L kg-1 ww h-1
- BCF (rainbow trout; own values): 16.3 L kg^–1

Compound: CCCCCCCCCCS(=O)(=O)O [C10SO3, decylsulfonate]
- log DMW, membrane-water distribution ratio ([2]; marked * = measured, used for IVIVE, same values as Table 3): 3.01
- log DMLW ([2]; measurement from Droge): 3.01 ^e L kg^–1
- Log difference (baseline BCF vs BCF) [1]: 2.48 L kg-1 ww
- Log baseline BCF [1]: 1.11 L kg-1 ww
- BCF (rainbow trout; [3]): 0.046 L kg-1 ww
- Log BCF (rainbow trout): -1.38 L kg-1 ww
- Concentration in fish (rainbow trout; elimination phase, 97 h): 3.0 ng g-1 ww and 1.5 ng g-1 ww and 1.3 ng g-1 ww
- Concentration in fish (rainbow trout; elimination phase, 98 h): 1.5 ng g-1 ww and 1.0 ng g-1 ww and 1.4 ng g-1 ww
- Concentration in fish (rainbow trout; elimination phase, 100 h): 5.1 ng g-1 ww and 1.4 ng g-1 ww (2×)
- Concentration in fish (rainbow trout; elimination phase, 103 h): 0.3 ng g-1 ww (2×) and 0.6 ng g-1 ww
- Concentration in fish (rainbow trout; elimination phase, 120 h): 0.50 ng g-1 ww and 0.76 ng g-1 ww and 0.61 ng g-1 ww
- Concentration in fish (rainbow trout; elimination phase, 128 h): 0.62 ng g-1 ww and 0.49 ng g-1 ww and 0.99 ng g-1 ww
- Concentration in fish (rainbow trout; elimination phase, 144 h): 0.63 ng g-1 ww and 0.33 ng g-1 ww and 5.2 ng g-1 ww
- Concentration in fish (rainbow trout; elimination phase, 168 h): 0.49 ng g-1 ww and 0.55 ng g-1 ww and 0.16 ng g-1 ww
- Concentration in fish (rainbow trout; elimination phase, 192 h): 0.14 ng g-1 ww and 0.15 ng g-1 ww and 0.22 ng g-1 ww
- Concentration in fish (rainbow trout; elimination phase, 264 h): 2.0 ng g-1 ww and 1.9 ng g-1 ww and 0.2 ng g-1 ww
- Concentration in fish (rainbow trout; exposure phase, 1 h): 1.1 ng g-1 ww and 2.1 ng g-1 ww and 1.4 ng g-1 ww
- Concentration in fish (rainbow trout; exposure phase, 2 h): 1.1 ng g-1 ww (2×) and 7.5 ng g-1 ww
- Concentration in fish (rainbow trout; exposure phase, 3 h): 1.5 ng g-1 ww and 1.6 ng g-1 ww and 5.5 ng g-1 ww
- Concentration in fish (rainbow trout; exposure phase, 4 h): 2.4 ng g-1 ww and 3.5 ng g-1 ww and 6.5 ng g-1 ww
- Concentration in fish (rainbow trout; exposure phase, 6 h): 2.1 ng g-1 ww and 2.0 ng g-1 ww and 1.4 ng g-1 ww
- Concentration in fish (rainbow trout; exposure phase, 24 h): 42.8 ng g-1 ww and 1.4 ng g-1 ww (2×)
- Concentration in fish (rainbow trout; exposure phase, 48 h): 2.4 ng g-1 ww and 3.6 ng g-1 ww and 1.7 ng g-1 ww
- Concentration in fish (rainbow trout; exposure phase, 72 h): 3.6 ng g-1 ww and 2.1 ng g-1 ww and 3.0 ng g-1 ww
- Concentration in fish (rainbow trout; exposure phase, 96 h): 3.0 ng g-1 ww (2×) and 2.8 ng g-1 ww
- BCF (steady-state) (rainbow trout; steady-state BCF, plateau 6-96 h, measured concentrations in water, 95% confidence interval in brackets): 0.042 ^d (0.034–0.050) L kg^–1 ww

Reference: publication PMC9118553, “In Vivo Bioconcentration of 10 Anionic Surfactants in Rainbow Trout Explained by In Vitro Data on Partitioning and S9 Clearance” (Environmental Science & Technology, 2022)
